One assay concerns osteoclast formation in calcitriol-stimulated mouse marrow cultures. The experiment in a line: osteoclastogenesis stimulated by calcitriol in mouse marrow cultures. As to conditions: concentration not given. In kind it is cell-based. The procedure:
Enoxacin and Binhib 2 were then tested for their effects on osteoclastogenesis stimulated by calcitriol in mouse marrow cultures. The mixed cultures represent a model for the complex interactions that regulate bone resorption in vivo. […] Osteoclast and osteoblast-containing mouse bone marrow cultures are obtained as above described. 4-6-week-old Swiss-Webster mice (Harlan, Indianapolis, Ind.) are sacrificed by cervical dislocation. Femurs and tibias are dissected free of adherent tissue; the marrow is expelled by cutting both bone ends and flushing the marrow cavity with MEM D10 using a 25-gauge needle. The marrow cells are washed twice and plated in 6 well plates at a concentration of 1×10^6 nucleated cells/cm^2 in MEM D1 0 containing 10 nM calcitriol. Cultures are fed on the third and fifth day of culture by replacing half of the medium with fresh medium containing calcitriol. Cultures are treated with enoxacin at 10 μM or vehicle control on Day 1, and when the media is refreshed.
T1 sequence (P21281 whole entry): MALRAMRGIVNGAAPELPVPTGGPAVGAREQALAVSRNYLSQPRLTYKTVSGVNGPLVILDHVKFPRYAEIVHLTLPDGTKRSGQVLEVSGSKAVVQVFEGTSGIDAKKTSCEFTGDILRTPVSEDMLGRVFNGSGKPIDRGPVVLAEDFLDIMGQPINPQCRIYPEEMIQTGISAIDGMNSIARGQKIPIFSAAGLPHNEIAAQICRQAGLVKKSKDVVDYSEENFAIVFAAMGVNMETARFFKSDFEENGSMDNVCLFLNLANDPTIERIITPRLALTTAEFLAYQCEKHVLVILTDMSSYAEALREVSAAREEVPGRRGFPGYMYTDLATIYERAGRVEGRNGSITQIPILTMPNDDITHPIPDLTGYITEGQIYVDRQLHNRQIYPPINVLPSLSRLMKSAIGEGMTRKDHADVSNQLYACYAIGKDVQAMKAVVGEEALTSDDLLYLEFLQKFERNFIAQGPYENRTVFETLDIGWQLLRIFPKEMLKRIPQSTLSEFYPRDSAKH
Consider `O=C(C[N+]12CN3CN(CN(C3)C1)C2)c1ccc(Cl)cc1.[I-]` [Binhib 2, 3,5,7-triaza-1-azoniatricyclo[3.3.1.13,7]decane, 1-[2-(4-chlorophenyl)-2-oxoethyl]-iodide], for which the osteoclast formation result is “without affecting”.

The next assay concerns mature osteoclasts on bone slices. Description: ruffled membrane formation / V-ATPase trafficking in mature osteoclasts on bone slices (anti-E subunit antibody). In kind it is cell-based. As to conditions: concentration not given. The procedure:
FIG. 7 depicts that enoxacin (10 μM) blocks ruffled membrane formation. Mature osteoclasts on bone slices were treated with enoxacin or vehicle control for 3 days, then fixed and labeled with an anti-E subunit antibody. […] Arrows point to representative osteoclasts; The present inventors also tested the effects of enoxacin on osteoclasts that were already mature and loaded onto bone slices. In this experiment, mature osteoclasts on bone slices were treated with enoxacin or vehicle control for 3 days, then fixed and labeled with an anti-E subunit antibody. Control osteoclasts produced many ruffled membranes.
Consider `O=C(C[N+]12CN3CN(CN(C3)C1)C2)c1ccc(Cl)cc1.[I-]` [Binhib 2, 3,5,7-triaza-1-azoniatricyclo[3.3.1.13,7]decane, 1-[2-(4-chlorophenyl)-2-oxoethyl]-iodide], for which the ruffled membrane formation entry is reported as “blocks”.

Another assay addresses T1, interaction between recombinantly-expressed B2 subunit and pure rabbit muscle F-actin (Homo sapiens, UniProt P21281).
T1 construct: made in house
Description: pelleting assay of B subunit binding to F-actin.
Conditions: not given
The procedure: Twenty-one small molecules are tested for their ability to block interaction between recombinantly-expressed B2 subunit and pure rabbit muscle F-actin.
Recombinant B subunit (1 μM) plus/minus F-actin (2 μM)) plus/minus 100 uM inhibitor compounds were incubated for 10 minutes in 20 mM Tris/HCl (pH 7.5), 100 mM NaCl, 1 mM MgCl2, 0.2 mM CaCl2, 0.5 mM ATP, 0.2 mM DTT, then subjected to ultracentrifugation at 180,000×g for 45 min. Supernatants and pellets were collected in SDS-PAGE sample buffer, separated by SDS-PAGE, stained with Coomassie Blue, and densitometry was performed using a Flurchem 8000 (Alpha Innotech, San Leandro Calif.).
The percent inhibition was determined by densitometry of SDS-PAGE gels. The raw densitometric number obtained of the recombinant B subunit band that was pelleted with F-actin, but with no compound present, represented 0% inhibition. The amount of the raw densitometric number of the amount of recombinant B subunit that pelleted with no actin present, but with compound, represented 100% inhibition. The amount of recombinant B subunit that pelleted with actin and the compound being tested was placed as a percentage assuming a linear response.
Usually inhibition stands for the drop in the measured response relative to a control, in per cent. Consider `CN1N(C)C12CCC1(C)C(CCC3C1CCC1(C)C3CCC1(C)O)C2` (stereo not shown) [Binhib 3, 1′,2′,10,13,17-pentamethylhexadecahydrospiro[cyclopenta[a]phenanthrene-3,3′-diaziridin]-17-ol], for which the inhibition at 100 µM was 7%.

For the compound `O=C(C[N+]12CN3CN(CN(C3)C1)C2)c1ccc(Cl)cc1.[I-]` [Binhib 2, 3,5,7-triaza-1-azoniatricyclo[3.3.1.13,7]decane, 1-[2-(4-chlorophenyl)-2-oxoethyl]-iodide], the “B subunit actin interactions in vitro” value is given as “inhibits”.

The assay is the same for the next values; noted with them: 100 uM inhibitor compound; recombinant B subunit 1 μM, F-actin 2 μM; densitometry of SDS-PAGE gels.
Broadly, the % inhibition is how much of the control response was suppressed. On to `Cc1nc2ccccc2cc1C[N+]12CN3CN(CN(C3)C1)C2` [Binhib 30, 1-((2-methyl-3-quinolinyl)methyl)-15,3,5,7-tetraazatricyclo[3.3.1.1˜3,7˜]decane], for which the “% inhibition” value was 4%.

Turning to `Clc1cc(Cl)c(C[N+]23CN4CN(CN(C4)C2)C3)cc1Cl.[Cl-]` [Binhib 1, {3,5,7-Triaza-1-azoniatricyclo[3.3.1.13,7]decane}{1-[(2,}4,5-trichlorophenyl)methyl]-, chloride], the “% inhibition” value stood at 5%.

In the case of `COc1ccc(C(=O)C[N+]23CN4CN(CN(C4)C2)C3)cc1` [Binhib 41, 1-(4-methoxyphenyl)-2-(15,3,5,7-tetraazatricyclo[3.3.1.1˜3,7˜]dec-1-yl)ethanone], the “% inhibition” value was found to be 4%.

Regarding “2,4-diamino-5-(4-((2-aminoethyl)amino)-3-(hydroxy(oxido)amino)phenyl)-6-ethylpyrimidine [Binhib 33]”, the “% inhibition” value came out at 1%.

Turning to `BrC=C(Br)C[N+]12CN3CN(CN(C3)C1)C2` [Binhib 18, 1-(2,3-dibromo-2-propenyl)-15,3,5,7-tetraazatricyclo[3.3.1.1˜3,7˜]decane], the “% inhibition” value is 2%.

Regarding `ON=C(C[N+]12CN3CN(CN(C3)C1)C2)c1ccc(I)cc1` [Binhib 10, 1-(4-iodophenyl)-2-(15,3,5,7-tetraazatricyclo[3.3.1.1˜3,7˜]dec-1-yl)ethanone oxime], the “% inhibition” value amounted to 3%.

As to `O=C(C[N+]12CN3CN(CN(C3)C1)C2)c1ccc(Br)cc1` [Binhib 24, 1-(4-bromophenyl)-2-(15,3,5,7-tetraazatricyclo[3.3.1.1˜3,7˜]dec-1-yl)ethanone], the “% inhibition” value is recorded as 13%.

`COC(=O)C1CC23CCCN4CCC5(c6cccc(OC)c6N(C=O)C15CC2)C43` (stereo not shown) [Binhib 35, methyl 1-formyl-17-methoxyaspidofractinine-3-carboxylate]: the “% inhibition” value amounted to 4%.

As to `CC(C)Cc1ccc(C[N+]23CN4CN(CN(C4)C2)C3)cc1` [Binhib 20, 1-(4-isobutylbenzyl)-15,3,5,7-tetraazatricyclo[3.3.1.1˜3,7˜]decane], the “% inhibition” value turned out to be 5%.

Take `Brc1ccc(C[N+]23CN4CN(CN(C4)C2)C3)cc1.[Br-]` [Binhib 9, 3-(5,7-Triaza-1-azoniatricyclo[3.3.1.13,7]decane) (1-[(4-bromophenyl)methyl])bromide]: the “% inhibition” value worked out at 21%.

`O=C(C[N+]12CN3CN(CN(C3)C1)C2)c1ccc2ccccc2c1` [Binhib 36, 1-(2-naphthyl)-2-(15,3,5,7-tetraazatricyclo[3.3.1.1˜3,7˜]dec-1-yl)ethanone]: the “% inhibition” value was 0%.

On to “2-((4-methyl-1-piperazinyl)methyl)-15-indeno[1,2,3-de]quinazolin-1-ol [Binhib 15]”, for which the “% inhibition” value stood at 0%.

The assay is the same for the next values; noted with them: 100 uM inhibitor compound; recombinant B subunit 1 μM, F-actin 2 μM; densitometry of SDS-PAGE gels; read-out: % inhibition.
For the compound `Cn1c(=O)c2nc(SSc3nc4c(=O)n(C)c(=O)n(C)c4[nH]3)[nH]c2n(C)c1=O` [Binhib 31, 8,8′-disulfanediylbis(1,3-dimethyl-1H-purine-2,6(3H,9H)-dione)], the inhibition at 100 µM amounted to 2%.

In the case of `O=C(C[N+]12CN3CN(CN(C3)C1)C2)c1ccc(Cl)cc1.[I-]` [Binhib 2, 3,5,7-triaza-1-azoniatricyclo[3.3.1.13,7]decane, 1-[2-(4-chlorophenyl)-2-oxoethyl]-iodide], the inhibition at 100 µM worked out at 65%.

As to `C=C1C23C(CCCC2NC)CCC2(C)C4C(C(C)=O)C(O)CC4(C)CCC123` (stereo not shown) [Binhib 26, 1-(2-hydroxy-3a,12a-dimethyl-7-(methylamino)-6-methylenehexadecahydro-cyclopenta[a]cyclopropa[e]phenanthren-1-yl)ethanone], the inhibition at 100 µM is 0%.

With `COc1cccc(CN2CCN(N)CC2)c1` [Binhib 17, 4-(3-methoxybenzyl)-1-piperazinamine], the inhibition at 100 µM amounted to 0%.

On to `CCOC(=O)C(Cc1c[nH]c2ccccc12)NCCN` (stereo not shown) [Binhib 5, ethyl 2-((2-aminoethyl)amino)-3-(1H-indol-3-yl)propanoate], for which the inhibition at 100 µM stood at 0%.

As for `S=C(S)NCCN1CCNCC1` [Binhib 38, 2-(1-piperazinyl)ethylcarbamodithioic acid], the inhibition at 100 µM turned out to be 3%.

The values above are taken from patent US20120046246A1, “METHODS FOR TREATING OSTEOCLAST-RELATED DISEASE, COMPOUNDS AND COMPOSITIONS THEREOF” (University of Florida Research Foundation, priority 2008, published 2012).
